In US20100280052A1, “USE OF ANTIVIRALS TO TREAT CMV-RELATED CONDITIONS” (priority 2007, published 2010):

Tests used:
[1] = prodrug compared with penciclovir; cited from earlier work
[2] = cited from earlier work; for side effects: at common doses
[3] = test system: CMV; conditions: cited from earlier work
[4] = test system: CD8+ T cells; assay: CD57 antibody staining of peripheral blood CD8+ T cells (Example 1, FIG. 16); assay type: in vivo, human; conditions: CMV seropositive donors, patients taking drug vs healthy controls
Method: (§1) The CMV-specific immune response was measured in a cohort of CMV seropositive or seronegative donors who are taking acyclovir or valaciclovir. This was compared to an age-matched control cohort. […] Comprehensive analysis of (1) the total T cell profile of these donors, and (2) their CMV-specific response, was performed. The results were compared to an age-matched control group of CMV seropositive or seronegative donors.

[5] = test system: CMV-specific T cells; assay: Interferon-gamma Elispot analysis of CMV-specific T cells, single individual (Example 2, FIG. 18); assay type: in vivo, human; conditions: before, 3 and 14 months after treatment with acyclovir 40 mg b.d., CMV lysate or pp65 or IE-1 peptide pools
From the text: Finally, referring to FIG. 18, the blood was stimulated with CMV lysate, or peptide pools from CMV pp65 or IE-1, and the number of CMV-specific T cells was detected using interferon-gamma Elispot analysis. It can be seen that the magnitude of this response was reduced by treatment.

[6] = test system: CD4+ T cells; assay: CD27, CD28, CD57 antibody staining of peripheral blood CD4+ T cells (Example 1, FIGS. 12-15); assay type: in vivo, human; conditions: CMV-seropositive patients taking ACV or VCV vs healthy donors; for percentage of CD4+ T cells which have lost expression of CD27: FIGS. 12, 13; for percentage of CD4+ T cells which have lost expression of CD28: FIGS. 12, 14; for percentage of CD4+ T cells which have gained expression of CD57: FIGS. 12, 15
Method: as §1
In FIG. 12, CD4+ T cells in peripheral blood of 35 CMV-seropositive or seronegative healthy donors were stained with antibodies to CD27, CD28 or CD57. These are shown on the left panel. A similar analysis was performed on patients taking acyclovir or valacyclovir (right hand panel). It can be seen that the percentage of CD4 + T cells which have lost expression of CD27 or CD28, or have gained expression of CD57, is lower in CMV-seropositive patients who are taking ACV or VCV in comparison to healthy donors.
Referring to FIG. 13, CD4+ T cells in peripheral blood of 25 healthy donors or patients taking ACV or VCV were stained with antibodies to CD27.
Referring to FIG. 14, CD4+ T cells in peripheral blood of 25 healthy donors or patients taking ACV or VCV were stained with antibodies to CD28.
Referring to FIG. 15, CD4+ T cells in peripheral blood of 25 healthy donors or patients taking ACV or VCV were stained with antibodies to CD57.

[7] = test system: CMV-specific T cells; assay: CMV-specific T cells detected by Interferon-gamma expression in blood of patients taking ACV or VCV (Example 1, FIGS. 9, 10); assay type: in vivo, human
[8] = test system: CMV-specific T cells; assay: Elispot analysis of antigen-specific T cells after CMV lysate stimulation (Example 1, FIG. 11); assay type: in vivo, human; conditions: patients taking ACV or VCV vs healthy CMV seropositive donors
Method: as §1
A reduced Elispot response to CMV is seen in patients taking ACV or VCV.

[9] = test system: CMV-specific CD4+ T cells; assay: CD4+ T cells producing interferon-gamma after CMV lysate stimulation, single individual (Example 2, FIG. 17); assay type: in vivo, human; conditions: before, 3 and 14 months after treatment with acyclovir 40 mg b.d.
From the text: Referring to FIG. 17, the blood was stimulated with CMV lysate, and the percentage of CD4+ T cells which produce interferon-gamma in response to antigen measured. It can be seen that this percentage was reduced on treatment.

[10] = test system: CMV; conditions: ganciclovir and valganciclovir compared with acyclovir and valacyclovir; cited from earlier work
[11] = FIG. 9, CMV seropositive patients on ACV 400 mg b.d. or VCV 500 mg o.d. or b.d. vs healthy control CMV seropositive donors, CMV lysate or pp65 and IE-1 peptide pools
[12] = FIG. 10, time-dependent effect, ACV 400 mg b.d. or VCV 500 mg o.d. or b.d., CMV lysate

Row | Structure (SMILES) | side effects [2] | percentage of CD8+ T cells which express CD57 [4] | percentage of CD4+ T cells which have lost expression of CD27 [6] | percentage of CD4+ T cells which have lost expression of CD28 [6] | percentage of CD4+ T cells which have gained expression of CD57 [6] | number of CMV-specific T cells (Interferon-gamma expression) [7, 11] | number of CMV-specific T cells (Interferon-gamma expression) [7, 12] | Elispot response to CMV [8] | activity against CMV [10] | other results
1 | CC(=O)OCC(CCn1cnc2cnc(N)nc21)COC(C)=O [Famciclovir] |  |  |  |  |  |  |  |  |  | bioavailability [1]: improved bioavailability
2 | Nc1nc2c(ncn2COCCO)c(=O)[nH]1 [acyclovir, 9-(2-hydroxyethoxymethyl)guanine] | nausea, vomiting, diarrhoea and/or headaches | reduced | reduced | reduced | reduced | reduced | reduced | reduced |  | activity against CMV replication in vitro [3]: minimal activity; number of CMV-specific T cells (magnitude of interferon-gamma Elispot response) [5]: reduced; percentage of CD4+ T cells which have lost expression of CD27 ([6]; listed as ACV): lower; percentage of CD4+ T cells which have lost expression of CD28 ([6]; listed as ACV): lower; percentage of CD4+ T cells which have gained expression of CD57 ([6]; listed as ACV): lower; percentage of CD4+ T cells which produce interferon-gamma in response to antigen [9]: reduced
3 | Nc1nc(O)c2ncn(COC(CO)CO)c2n1 [ganciclovir] |  |  |  |  |  |  |  |  | markedly improved activity | carcinogenicity, teratogenicity, mutagenicity ([2]; human): potential human carcinogen, teratogen, and mutagen
4 | Nc1nc2c(ncn2CCC(CO)CO)c(=O)[nH]1 [penciclovir] |  |  |  |  |  |  |  |  | minimal activity | side effects compared with acyclovir ([2]; treatment of herpesvirus infections): fewer side effects
5 | CC(C)[C@H](N)C(=O)OCCOCn1cnc2c(=O)[nH]c(N)nc21 [valacyclovir] | nausea, vomiting, diarrhoea and/or headaches | reduced | reduced | reduced | reduced | reduced | reduced | reduced |  | percentage of CD4+ T cells which have lost expression of CD27 ([6]; listed as VCV): lower; percentage of CD4+ T cells which have lost expression of CD28 ([6]; listed as VCV): lower; percentage of CD4+ T cells which have gained expression of CD57 ([6]; listed as VCV): lower
6 | CC(C)[C@H](N)C(=O)OCC(CO)OCn1cnc2c(=O)nc(N)[nH]c21 (stereo partly shown) [valganciclovir] |  |  |  |  |  |  |  |  | markedly improved activity | 
